In publication PMC7704495 (Pharmacological Reports, 2020):

How the values were obtained:
[1] = lipophilicity; cited from earlier work
CYP2C9 [2] = target: T1, CYP2C9 (Homo sapiens, UniProt P11712); test: CYP2C9 inhibition, diclofenac 4′-hydroxylation in cDNA-expressed CYP2C9 (supersomes); format: in vitro ADME; details: for type of inhibition: Lineweaver–Burk
T1 construct: purchased Corning (Woburn, USA); host or cells: baculovirus-infected insect cells
Procedure: (§1) The following probe reactions were applied, according to the methods previously described: caffeine 3-N-demethylation for CYP1A2 (caffeine 200, 400 and 800 µM), diclofenac 4′-hydroxylation for CYP2C9 (diclofenac 5, 10, 25 µM), perazine N-demethylation for CYP2C19 (perazine 50, 100, 200 µM), bufuralol 1′-hydroxylation for CYP2D6 (bufuralol 10, 25, 50 µM), and testosterone 6β-hydroxylation for CYP3A4 (50, 100 and 200 µM). Incubation systems for CYP2C9, 2C19 and 3A4 contained: 50 mM TRIS/KCL buffer (pH = 7.4), NADPH generating system (1 mM NADP, 5 mM glucose 6-phosphate, 1.7 U/ml glucose 6-phosphate dehydrogenase, 1 mM EDTA and 3 mM MgCl2). Incubation mixture for CYP1A2 included: 0.15 M phosphate buffer (pH = 7.4) and 1 mM NADPH, and for CYP2D6: 0.1 M TRIS/KCL buffer (pH = 7.4), NADPH generating system (1.3 mM NADP, 3.3 mM glucose 6-phosphate, 1 U/ml glucose 6-phosphate dehydrogenase and 3.3 mM MgCl2). The appropriate concentrations of human liver microsomes (0.5 mg/ml for each reaction) or supersomes (50 pmol CYP/ml), various concentrations of a probe substrate in the absence or presence of neuroleptic (concentrations: 0.1, 0.5, 1, 5, 10 µM) were added, The final volume of the reaction mixture was 0.5 ml. The incubation time for supersomes was 30 min (for each reaction) and for liver microsomes: 30 min (diclofenac 4′-hydroxylation and bufuralol 1′-hydroxylation), 20 min (perazine N-demethylation and testosterone 6β-hydroxylation) or 50 min (caffeine 3-N-demethylation). After the reactions had been stopped, the concentrations of specific substrates and their metabolites formed in liver microsomes or supersomes were assessed by the HPLC method with UV detection (or fluorimetric detection for CYP2D6), as described previously.
(§2) Kinetic parameters (Km, Vmax, Ki) describing the course of CYP-specific reactions in liver microsomes or supersomes were obtained using the Michaelis–Menten approach and a non-linear regression analysis (Program Sigma Plot 12.3 Enzyme Kinetics).

CYP2C9 [3] = target: T1, CYP2C9; test: CYP2C9 inhibition, diclofenac 4′-hydroxylation in pooled human liver microsomes; format: in vitro ADME; details: for type of inhibition: Lineweaver–Burk
Procedure: as §1, §2

CYP1A2 [4] = target: T2, CYP1A2 (Homo sapiens, UniProt P05177); test: CYP1A2 inhibition, caffeine 3-N-demethylation in pooled human liver microsomes; format: in vitro ADME; details: for type of inhibition: Lineweaver–Burk; for Ki: caffeine 3-N-demethylation
T2 construct: purchased Corning (Woburn, USA); host or cells: baculovirus-infected insect cells
T2 sequence (P05177 1-516): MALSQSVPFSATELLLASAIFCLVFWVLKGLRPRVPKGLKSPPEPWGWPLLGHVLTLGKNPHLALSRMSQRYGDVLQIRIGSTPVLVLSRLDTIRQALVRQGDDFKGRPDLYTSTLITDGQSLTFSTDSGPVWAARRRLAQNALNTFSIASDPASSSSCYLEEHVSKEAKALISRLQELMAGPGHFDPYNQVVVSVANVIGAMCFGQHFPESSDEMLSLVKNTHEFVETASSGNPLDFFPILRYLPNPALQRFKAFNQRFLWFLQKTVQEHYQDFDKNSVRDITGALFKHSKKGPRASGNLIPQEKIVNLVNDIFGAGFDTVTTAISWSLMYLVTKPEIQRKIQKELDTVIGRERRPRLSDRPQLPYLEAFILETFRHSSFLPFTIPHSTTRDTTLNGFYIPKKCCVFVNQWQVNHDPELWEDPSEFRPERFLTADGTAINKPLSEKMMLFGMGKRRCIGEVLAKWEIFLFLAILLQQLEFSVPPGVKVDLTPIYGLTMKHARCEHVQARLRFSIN
Procedure: as §1, §2

CYP3A4 [5] = target: T3, CYP3A4 (Homo sapiens, UniProt P08684); test: CYP3A4 inhibition, testosterone 6β-hydroxylation in pooled human liver microsomes
T3 sequence (P08684 whole entry): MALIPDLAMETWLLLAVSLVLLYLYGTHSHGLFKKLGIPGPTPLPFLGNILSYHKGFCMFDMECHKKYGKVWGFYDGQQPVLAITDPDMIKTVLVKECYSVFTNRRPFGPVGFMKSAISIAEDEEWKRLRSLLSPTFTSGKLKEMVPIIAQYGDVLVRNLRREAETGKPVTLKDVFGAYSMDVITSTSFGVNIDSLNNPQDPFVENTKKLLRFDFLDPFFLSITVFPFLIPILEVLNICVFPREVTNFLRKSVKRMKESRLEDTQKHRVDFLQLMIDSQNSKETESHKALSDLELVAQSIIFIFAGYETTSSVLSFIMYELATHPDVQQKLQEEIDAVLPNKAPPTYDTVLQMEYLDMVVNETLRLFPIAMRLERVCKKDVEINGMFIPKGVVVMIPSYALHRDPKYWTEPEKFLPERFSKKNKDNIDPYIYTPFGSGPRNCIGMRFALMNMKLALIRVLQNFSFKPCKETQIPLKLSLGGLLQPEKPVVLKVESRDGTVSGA
Procedure: as §1, §2

[6] = patients; cited from earlier work
CYP2D6 [7] = target: T4, CYP2D6 (Homo sapiens, UniProt P10635); test: CYP2D6 inhibition, bufuralol 1′-hydroxylation in pooled human liver microsomes; format: in vitro ADME; design: a Human liver microsomes; tissue Corning (Woburn, USA); host or cells: pooled human liver microsomes; details: for type of inhibition: Lineweaver–Burk; for Ki: bufuralol 1′-hydroxylation
T4 sequence (P10635 whole entry): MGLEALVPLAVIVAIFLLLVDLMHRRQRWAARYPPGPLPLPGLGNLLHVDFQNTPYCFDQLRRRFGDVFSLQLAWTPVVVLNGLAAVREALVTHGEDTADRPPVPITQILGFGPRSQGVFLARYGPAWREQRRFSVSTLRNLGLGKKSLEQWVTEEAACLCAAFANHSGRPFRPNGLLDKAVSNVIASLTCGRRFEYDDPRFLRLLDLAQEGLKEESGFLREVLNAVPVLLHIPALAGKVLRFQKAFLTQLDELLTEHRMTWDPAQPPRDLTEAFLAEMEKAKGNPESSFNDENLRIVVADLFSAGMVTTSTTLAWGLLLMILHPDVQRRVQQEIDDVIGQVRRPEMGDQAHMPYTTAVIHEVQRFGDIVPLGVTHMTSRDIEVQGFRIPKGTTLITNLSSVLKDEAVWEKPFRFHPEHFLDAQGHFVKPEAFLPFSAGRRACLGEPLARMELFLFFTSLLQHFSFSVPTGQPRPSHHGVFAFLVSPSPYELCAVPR
Procedure: as §1, §2

CYP3A4 [8] = target: T3, CYP3A4; test: CYP3A4 inhibition, testosterone 6β-hydroxylation in cDNA-expressed CYP3A4 (supersomes)
Procedure: as §1, §2

CYP2D6 [9] = target: T4, CYP2D6; test: CYP2D6 inhibition, bufuralol 1′-hydroxylation in cDNA-expressed CYP2D6 (supersomes); format: in vitro ADME; details: for type of inhibition: Lineweaver–Burk; for Ki: bufuralol 1′-hydroxylation
Procedure: as §1, §2

CYP2C19 [10] = target: T5, CYP2C19 (Homo sapiens, UniProt P33261); test: CYP2C19 inhibition, perazine N-demethylation in pooled human liver microsomes; format: in vitro ADME; design: a Human liver microsomes; tissue Corning (Woburn, USA); host or cells: pooled human liver microsomes; details: for type of inhibition: Lineweaver–Burk; for Ki: perazine N-demethylation
T5 sequence (P33261 whole entry): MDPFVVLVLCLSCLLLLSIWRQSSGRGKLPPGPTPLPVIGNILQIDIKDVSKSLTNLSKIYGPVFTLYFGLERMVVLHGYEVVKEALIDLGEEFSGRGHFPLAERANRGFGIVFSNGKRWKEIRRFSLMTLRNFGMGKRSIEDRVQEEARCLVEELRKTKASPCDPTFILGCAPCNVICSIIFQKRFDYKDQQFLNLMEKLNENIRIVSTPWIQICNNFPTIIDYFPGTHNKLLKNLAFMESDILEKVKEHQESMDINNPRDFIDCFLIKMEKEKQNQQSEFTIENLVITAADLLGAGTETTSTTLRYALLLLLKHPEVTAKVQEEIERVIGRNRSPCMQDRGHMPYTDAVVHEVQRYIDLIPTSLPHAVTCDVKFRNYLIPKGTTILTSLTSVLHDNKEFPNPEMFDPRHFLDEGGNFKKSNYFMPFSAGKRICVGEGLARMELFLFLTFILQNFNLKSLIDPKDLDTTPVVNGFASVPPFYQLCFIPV
Procedure: as §1, §2

CYP2C19 [11] = target: T5, CYP2C19; test: CYP2C19 inhibition, perazine N-demethylation in cDNA-expressed CYP2C19 (supersomes); format: in vitro ADME; details: for type of inhibition: Lineweaver–Burk; for Ki: perazine N-demethylation
Procedure: as §1, §2

CYP1A2 [12] = target: T2, CYP1A2; test: CYP1A2 inhibition, caffeine 3-N-demethylation in cDNA-expressed CYP1A2 (supersomes); format: in vitro ADME; details: for type of inhibition: Lineweaver–Burk; for Ki: caffeine 3-N-demethylation
Procedure: as §1, §2

T1 sequence (P11712 whole entry): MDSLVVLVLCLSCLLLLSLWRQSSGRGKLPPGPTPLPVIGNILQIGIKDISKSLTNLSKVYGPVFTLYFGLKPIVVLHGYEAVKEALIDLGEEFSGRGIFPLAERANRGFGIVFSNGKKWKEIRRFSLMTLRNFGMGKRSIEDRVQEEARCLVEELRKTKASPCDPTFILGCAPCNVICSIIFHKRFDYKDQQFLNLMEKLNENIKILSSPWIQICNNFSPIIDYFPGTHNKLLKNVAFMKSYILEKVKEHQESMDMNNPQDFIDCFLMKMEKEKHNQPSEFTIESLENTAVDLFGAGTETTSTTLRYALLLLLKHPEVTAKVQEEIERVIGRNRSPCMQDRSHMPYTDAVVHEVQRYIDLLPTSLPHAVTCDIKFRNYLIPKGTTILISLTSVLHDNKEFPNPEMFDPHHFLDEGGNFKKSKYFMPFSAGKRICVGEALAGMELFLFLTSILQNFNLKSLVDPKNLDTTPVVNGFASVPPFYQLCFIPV

Compound	log P [1]	type of inhibition (CYP1A2 [4])	Ki (CYP1A2 [4])	type of inhibition (CYP3A4 [5])	type of inhibition (CYP3A4 [5]; human, 20 min, pH 7.4)	therapeutic plasma concentration [6]	type of inhibition (CYP2D6 [7])	Ki (CYP2D6 [7])	type of inhibition (CYP3A4 [8])	type of inhibition (CYP3A4 [8]; human, 30 min, pH 7.4)	type of inhibition (CYP2D6 [9])	Ki (CYP2D6 [9])	type of inhibition (CYP2C19 [10])	Ki (CYP2C19 [10])	type of inhibition (CYP2C19 [11])	Ki (CYP2C19 [11])	type of inhibition (CYP1A2 [12])	Ki (CYP1A2 [12])	further results
COc1cc(C(C)=O)ccc1OCCCN1CCC(c2noc3cc(F)ccc23)CC1 [Iloperidone, iloperidone]	4.43	Mixed	45 µM	noncompetitive	Noncompetitive	up to 0.2 μM	Competitive	2.9 µM	noncompetitive	Noncompetitive	Competitive	10 µM	Mixed	6.5 µM	Mixed	32 µM	Mixed	31 µM	Ki at 30 min (CYP2C9 [2]; human, pH 7.4, probe diclofenac (4′-hydroxylation), CYP2C9, supersomes, diclofenac 4′-hydroxylation): > 10 µM; effect on the activity of CYP2C9 (CYP2C9 [2]; supersomes, neuroleptic 0.1-10 µM): did not affect; Ki at 30 min (CYP2C9 [3]; human, pooled human liver microsomes, pH 7.4, probe diclofenac (4′-hydroxylation), CYP2C9, liver microsomes, diclofenac 4′-hydroxylation): > 10 µM; effect on the activity of CYP2C9 (CYP2C9 [3]; liver microsomes, neuroleptic 0.1-10 µM): did not affect; type of inhibition (CYP1A2 [4]; listed as iloperidone): mixed; type of inhibition (CYP2D6 [7]; listed as iloperidone): competitive; type of inhibition (CYP2D6 [9]; listed as iloperidone): competitive; type of inhibition (CYP2C19 [10]; listed as iloperidone): mixed; type of inhibition (CYP2C19 [11]; listed as iloperidone): mixed; type of inhibition (CYP1A2 [12]; listed as iloperidone): mixed
O=C1[C@@H]2[C@H]3CC[C@H](C3)[C@@H]2C(=O)N1C[C@@H]1CCCC[C@H]1CN1CCN(c2nsc3ccccc23)CC1 [Lurasidone, lurasidone]	5.6	Mixed	12.6 µM	competitive	Competitive	≤ 1.2 µM	Competitive	37.5 µM	competitive	Competitive	Competitive	85 µM	Mixed	18 µM	Mixed	18.4 µM	Mixed	15.5 µM	type of inhibition (CYP2C9 [2]; CYP2C9, supersomes): Mixed; type of inhibition (CYP2C9 [2]; CYP2C9, supersomes, listed as lurasidone): mixed; Ki (CYP2C9 [2]; CYP2C9, supersomes, diclofenac 4′-hydroxylation): 3.5 µM; type of inhibition (CYP2C9 [3]; CYP2C9, liver microsomes): Mixed; type of inhibition (CYP2C9 [3]; CYP2C9, liver microsomes, listed as lurasidone): mixed; Ki (CYP2C9 [3]; CYP2C9, liver microsomes, diclofenac 4′-hydroxylation): 18 µM; type of inhibition (CYP1A2 [4]; listed as lurasidone): mixed; Ki (CYP3A4 [5]): 29.4 µM; type of inhibition (CYP2D6 [7]; listed as lurasidone): competitive; Ki (CYP3A4 [8]): 9.1 µM; type of inhibition (CYP2D6 [9]; listed as lurasidone): competitive; type of inhibition (CYP2C19 [10]; listed as lurasidone): mixed; type of inhibition (CYP2C19 [11]; listed as lurasidone): mixed; type of inhibition (CYP1A2 [12]; listed as lurasidone): mixed
